How the values were obtained:
[1] = target: T1, Alpha-1D adrenergic receptor (Homo sapiens, UniProt P25100); format: cell membranes, HEK293, Membrane; settings: hek293; further: in other assays of this panel Not Active means under 50% inhibition at 10 µM
T1 sequence (P25100 whole entry): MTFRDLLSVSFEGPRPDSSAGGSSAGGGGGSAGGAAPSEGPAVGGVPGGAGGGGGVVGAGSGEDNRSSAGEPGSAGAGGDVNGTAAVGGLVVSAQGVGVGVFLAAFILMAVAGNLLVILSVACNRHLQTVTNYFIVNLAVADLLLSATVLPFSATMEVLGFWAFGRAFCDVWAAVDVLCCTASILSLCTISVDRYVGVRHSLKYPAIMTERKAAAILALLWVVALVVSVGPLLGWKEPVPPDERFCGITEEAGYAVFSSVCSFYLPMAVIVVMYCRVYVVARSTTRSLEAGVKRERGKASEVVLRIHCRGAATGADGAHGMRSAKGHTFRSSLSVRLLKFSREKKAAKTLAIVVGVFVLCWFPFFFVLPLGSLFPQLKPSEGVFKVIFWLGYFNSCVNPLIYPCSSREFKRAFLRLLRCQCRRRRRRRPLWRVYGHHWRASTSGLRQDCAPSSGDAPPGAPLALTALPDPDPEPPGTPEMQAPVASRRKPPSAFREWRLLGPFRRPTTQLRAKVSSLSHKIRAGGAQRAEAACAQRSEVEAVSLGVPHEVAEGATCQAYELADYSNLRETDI

[2] = target: 5-hydroxytryptamine receptor 4 (Cavia porcellus, UniProt O70528); format: cell membranes, Dunkin-Hartley, Striatum, Membrane; further: in other assays of this panel Not Active means under 50% inhibition at 10 µM
[3] = target: 5-hydroxytryptamine receptor 6 (Homo sapiens, UniProt P50406); format: cell membranes, HeLa, Membrane; settings: hela; further: in other assays of this panel Not Active means under 50% inhibition at 10 µM
[4] = target: Substance-P receptor (Homo sapiens, UniProt P25103); format: cell membranes, CHO, Membrane; settings: cho; further: in other assays of this panel Not Active means under 50% inhibition at 10 µM
[5] = target: T2, Endothelin-1 receptor (Homo sapiens, UniProt P25101); format: cell membranes, Membrane; settings: cho-k1; further: in other assays of this panel Not Active means under 50% inhibition at 10 µM
T2 sequence (P25101 whole entry): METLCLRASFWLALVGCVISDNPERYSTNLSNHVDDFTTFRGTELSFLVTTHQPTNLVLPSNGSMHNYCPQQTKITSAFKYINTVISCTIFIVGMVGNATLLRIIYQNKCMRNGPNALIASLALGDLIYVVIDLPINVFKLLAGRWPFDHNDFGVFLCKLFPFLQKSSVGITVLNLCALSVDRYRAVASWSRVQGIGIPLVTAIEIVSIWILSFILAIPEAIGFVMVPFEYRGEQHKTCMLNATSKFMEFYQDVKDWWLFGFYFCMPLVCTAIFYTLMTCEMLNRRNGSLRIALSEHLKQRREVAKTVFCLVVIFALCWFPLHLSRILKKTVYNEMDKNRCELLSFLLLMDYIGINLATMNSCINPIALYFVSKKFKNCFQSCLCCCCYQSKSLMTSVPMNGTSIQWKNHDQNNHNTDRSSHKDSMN

[6] = target: T3, Cysteinyl leukotriene receptor 1 (Homo sapiens, UniProt Q9Y271); format: cell membranes, CHO-K1, Membrane; settings: cho-k1; further: in other assays of this panel Not Active means under 50% inhibition at 10 µM
T3 sequence (Q9Y271 whole entry): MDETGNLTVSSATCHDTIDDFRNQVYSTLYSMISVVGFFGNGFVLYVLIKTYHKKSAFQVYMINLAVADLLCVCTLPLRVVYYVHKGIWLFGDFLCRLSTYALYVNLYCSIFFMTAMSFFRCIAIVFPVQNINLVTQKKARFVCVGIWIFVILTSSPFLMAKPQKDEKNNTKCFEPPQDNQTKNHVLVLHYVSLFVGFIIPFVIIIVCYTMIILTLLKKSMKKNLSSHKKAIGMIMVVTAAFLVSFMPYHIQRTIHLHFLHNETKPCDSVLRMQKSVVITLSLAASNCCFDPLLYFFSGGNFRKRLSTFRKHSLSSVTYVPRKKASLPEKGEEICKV

[7] = target: Melanocortin receptor 3 (Homo sapiens, UniProt P41968); format: cell membranes, Membrane; settings: hek293; further: in other assays of this panel Not Active means under 50% inhibition at 10 µM
[8] = target: Mitogen-activated protein kinase 3 (Homo sapiens, UniProt P27361); assay: DRUGMATRIX: Protein Serine/Threonine Kinase, ERK1 enzyme inhibition (substrate: Myelin Basic Protein); design: species or system Escherichia coli; settings: Not Active = under 50% inhibition at 10 µM
[9] = target: Mitogen-activated protein kinase 1 (Homo sapiens, UniProt P28482); assay: DRUGMATRIX: Protein Serine/Threonine Kinase, ERK2 enzyme inhibition (substrate: Myelin Basic Protein); design: species or system Escherichia coli; settings: Not Active = under 50% inhibition at 10 µM
[10] = target: 5-hydroxytryptamine receptor 1B (Rattus norvegicus, UniProt P28564); format: cell membranes, Wistar, Cerebral cortex, Membrane; further: in other assays of this panel Not Active means under 50% inhibition at 10 µM
[11] = target: T4, Adenosine receptor A1 (Homo sapiens, UniProt P30542); format: cell membranes, CHO, Membrane; settings: cho
T4 sequence (P30542 whole entry): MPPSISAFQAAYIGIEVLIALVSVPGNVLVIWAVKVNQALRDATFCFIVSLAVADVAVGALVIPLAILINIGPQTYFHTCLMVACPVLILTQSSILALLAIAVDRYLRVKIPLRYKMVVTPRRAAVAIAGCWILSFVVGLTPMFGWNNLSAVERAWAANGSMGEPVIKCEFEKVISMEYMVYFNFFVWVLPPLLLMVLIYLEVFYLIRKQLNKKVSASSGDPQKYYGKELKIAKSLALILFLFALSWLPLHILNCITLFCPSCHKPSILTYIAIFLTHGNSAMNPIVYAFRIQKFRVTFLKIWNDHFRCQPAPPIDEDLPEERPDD

[12] = target: T5, Cytochrome P450 1A2 (Homo sapiens, UniProt P05177); settings: bti-tn-5b1-4; further: in other assays of this panel Not Active means under 50% inhibition at 10 µM
T5 sequence (P05177 whole entry): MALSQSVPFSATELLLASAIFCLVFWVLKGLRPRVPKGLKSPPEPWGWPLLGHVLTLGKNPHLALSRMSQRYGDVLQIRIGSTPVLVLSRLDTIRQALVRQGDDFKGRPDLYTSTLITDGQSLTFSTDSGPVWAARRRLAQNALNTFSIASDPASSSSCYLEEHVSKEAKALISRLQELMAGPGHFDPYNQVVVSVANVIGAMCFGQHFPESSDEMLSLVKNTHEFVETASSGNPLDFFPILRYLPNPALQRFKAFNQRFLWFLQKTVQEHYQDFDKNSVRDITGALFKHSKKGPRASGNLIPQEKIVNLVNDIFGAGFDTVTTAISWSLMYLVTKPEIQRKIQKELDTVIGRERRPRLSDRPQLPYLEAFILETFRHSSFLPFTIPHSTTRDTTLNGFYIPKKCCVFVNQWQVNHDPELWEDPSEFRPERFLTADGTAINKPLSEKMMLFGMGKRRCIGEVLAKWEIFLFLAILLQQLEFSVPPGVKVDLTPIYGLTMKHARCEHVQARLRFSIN

[13] = target: Cytochrome P450 2E1 (Homo sapiens, UniProt P05181); settings: bti-tn-5b1-4; further: in other assays of this panel Not Active means under 50% inhibition at 10 µM
Cytochrome P450 2E1, sequence (P05181 whole entry): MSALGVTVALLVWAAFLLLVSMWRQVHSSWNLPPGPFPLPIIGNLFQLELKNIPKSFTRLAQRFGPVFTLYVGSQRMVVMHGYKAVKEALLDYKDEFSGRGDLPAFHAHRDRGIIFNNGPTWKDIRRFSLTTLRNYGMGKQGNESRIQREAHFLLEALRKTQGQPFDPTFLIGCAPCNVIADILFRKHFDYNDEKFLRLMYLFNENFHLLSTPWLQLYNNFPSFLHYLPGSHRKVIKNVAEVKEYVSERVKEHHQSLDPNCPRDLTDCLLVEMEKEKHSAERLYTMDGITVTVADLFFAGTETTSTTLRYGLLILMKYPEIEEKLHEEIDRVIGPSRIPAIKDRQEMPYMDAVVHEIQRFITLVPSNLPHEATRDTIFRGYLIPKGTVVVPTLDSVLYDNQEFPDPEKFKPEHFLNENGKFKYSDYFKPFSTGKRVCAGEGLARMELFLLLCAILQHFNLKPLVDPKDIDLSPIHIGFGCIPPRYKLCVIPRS

Melanocortin receptor 3, sequence (P41968 whole entry): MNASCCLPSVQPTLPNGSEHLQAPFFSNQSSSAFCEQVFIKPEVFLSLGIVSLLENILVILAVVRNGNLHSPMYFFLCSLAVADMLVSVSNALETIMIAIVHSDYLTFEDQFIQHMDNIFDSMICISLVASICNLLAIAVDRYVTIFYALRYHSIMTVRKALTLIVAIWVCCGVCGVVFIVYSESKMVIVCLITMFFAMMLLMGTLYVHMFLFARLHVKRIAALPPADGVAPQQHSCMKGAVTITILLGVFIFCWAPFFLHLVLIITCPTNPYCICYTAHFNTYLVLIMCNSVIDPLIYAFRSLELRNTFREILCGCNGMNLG
5-hydroxytryptamine receptor 6, sequence (P50406 whole entry): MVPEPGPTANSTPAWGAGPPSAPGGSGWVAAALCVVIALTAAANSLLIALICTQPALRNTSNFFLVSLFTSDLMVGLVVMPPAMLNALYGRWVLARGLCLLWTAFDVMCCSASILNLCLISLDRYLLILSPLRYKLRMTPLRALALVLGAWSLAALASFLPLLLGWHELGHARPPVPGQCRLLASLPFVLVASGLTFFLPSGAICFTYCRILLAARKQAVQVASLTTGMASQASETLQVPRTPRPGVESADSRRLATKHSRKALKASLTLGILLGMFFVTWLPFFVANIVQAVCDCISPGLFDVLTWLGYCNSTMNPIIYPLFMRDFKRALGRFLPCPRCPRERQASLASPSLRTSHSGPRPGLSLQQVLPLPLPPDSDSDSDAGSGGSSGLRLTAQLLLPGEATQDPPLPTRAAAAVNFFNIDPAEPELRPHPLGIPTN
Mitogen-activated protein kinase 3, sequence (P27361 whole entry): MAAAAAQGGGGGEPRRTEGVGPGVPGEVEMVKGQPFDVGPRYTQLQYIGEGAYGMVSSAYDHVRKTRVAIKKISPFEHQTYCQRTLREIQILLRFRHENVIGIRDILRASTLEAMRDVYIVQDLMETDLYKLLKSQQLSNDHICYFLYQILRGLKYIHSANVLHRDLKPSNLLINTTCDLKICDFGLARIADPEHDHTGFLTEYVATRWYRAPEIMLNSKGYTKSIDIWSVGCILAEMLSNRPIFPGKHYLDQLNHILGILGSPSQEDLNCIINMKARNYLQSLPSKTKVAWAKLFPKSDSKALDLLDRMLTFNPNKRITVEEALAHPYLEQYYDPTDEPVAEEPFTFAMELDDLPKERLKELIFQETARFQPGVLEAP
Mitogen-activated protein kinase 1, sequence (P28482 whole entry): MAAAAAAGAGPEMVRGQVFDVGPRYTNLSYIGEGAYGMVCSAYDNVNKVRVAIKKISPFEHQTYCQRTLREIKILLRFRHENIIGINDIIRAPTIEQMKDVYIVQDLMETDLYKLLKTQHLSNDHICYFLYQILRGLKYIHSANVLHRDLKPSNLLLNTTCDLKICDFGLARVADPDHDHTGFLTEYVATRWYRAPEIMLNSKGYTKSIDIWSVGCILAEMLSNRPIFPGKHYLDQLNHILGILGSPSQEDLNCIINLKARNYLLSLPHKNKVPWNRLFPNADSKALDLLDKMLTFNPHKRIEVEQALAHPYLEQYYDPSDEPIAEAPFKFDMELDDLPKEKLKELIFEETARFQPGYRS
5-hydroxytryptamine receptor 4, sequence (O70528 whole entry): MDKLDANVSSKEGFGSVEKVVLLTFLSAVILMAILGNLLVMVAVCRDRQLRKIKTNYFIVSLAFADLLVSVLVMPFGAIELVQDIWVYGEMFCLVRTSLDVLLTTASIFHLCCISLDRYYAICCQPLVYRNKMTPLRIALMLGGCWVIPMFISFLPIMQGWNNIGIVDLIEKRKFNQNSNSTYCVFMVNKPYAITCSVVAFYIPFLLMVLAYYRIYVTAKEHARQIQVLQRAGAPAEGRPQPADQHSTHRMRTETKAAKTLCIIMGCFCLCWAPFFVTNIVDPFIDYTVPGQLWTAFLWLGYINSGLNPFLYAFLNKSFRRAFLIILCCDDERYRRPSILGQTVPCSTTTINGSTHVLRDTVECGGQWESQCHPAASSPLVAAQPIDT
5-hydroxytryptamine receptor 1B, sequence (P28564 whole entry): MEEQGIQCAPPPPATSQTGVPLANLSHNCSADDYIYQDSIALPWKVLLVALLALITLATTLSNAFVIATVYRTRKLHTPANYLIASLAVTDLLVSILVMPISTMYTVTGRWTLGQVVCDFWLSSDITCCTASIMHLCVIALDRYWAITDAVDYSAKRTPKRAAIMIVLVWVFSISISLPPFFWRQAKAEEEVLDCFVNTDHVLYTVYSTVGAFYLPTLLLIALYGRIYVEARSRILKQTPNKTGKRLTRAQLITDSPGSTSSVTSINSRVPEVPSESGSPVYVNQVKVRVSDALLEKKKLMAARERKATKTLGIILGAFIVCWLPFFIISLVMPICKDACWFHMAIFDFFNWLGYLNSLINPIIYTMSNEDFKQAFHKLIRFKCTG
Substance-P receptor, sequence (P25103 whole entry): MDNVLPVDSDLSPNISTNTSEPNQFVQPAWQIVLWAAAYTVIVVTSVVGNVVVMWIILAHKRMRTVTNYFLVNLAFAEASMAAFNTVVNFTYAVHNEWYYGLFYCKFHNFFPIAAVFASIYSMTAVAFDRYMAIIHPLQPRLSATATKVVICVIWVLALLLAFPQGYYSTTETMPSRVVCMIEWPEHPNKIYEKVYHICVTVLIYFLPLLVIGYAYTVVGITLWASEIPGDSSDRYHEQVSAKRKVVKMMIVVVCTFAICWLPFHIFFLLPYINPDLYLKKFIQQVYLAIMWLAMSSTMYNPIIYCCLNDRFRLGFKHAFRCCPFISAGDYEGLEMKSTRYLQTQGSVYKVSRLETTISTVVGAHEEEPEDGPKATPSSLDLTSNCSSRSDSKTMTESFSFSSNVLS

C=C1[C@@H]2CCC3[C@@](CC[C@@H]4[C@H](C(=O)O)C[C@@H](O[C@@H]5O[C@H](CO)[C@@H](OS(=O)(=O)[O-])[C@H](OS(=O)(=O)[O-])[C@H]5OC(=O)CC(C)C)C[C@@]34C)(C2)[C@@H]1O.[K+].[K+] (stereo not given in full) [ATRACTYLOSIDE]
Not Active: IC50 [1] | IC50 [2] | IC50 [3] | IC50 [4] | IC50 [5] | IC50 [6] | IC50 [7] | IC50 [8] | IC50 [9] | IC50 [10] | IC50 [11] | IC50 [12] | Ki [12] | IC50 [13] | Ki [13]

Fc1ccc([C@@H]2CCNC[C@H]2COc2ccc3c(c2)OCO3)cc1 [PAROXETINE]
Not Active: IC50 [1] | IC50 [2] | IC50 [3] | IC50 [4] | IC50 [5] | IC50 [6] | IC50 [7] | IC50 [8] | IC50 [9] | IC50 [10] | IC50 [11] | IC50 [12] | Ki [12] | IC50 [13] | Ki [13]

COc1c(N2CCNC(C)C2)c(F)cc2c(=O)c(C(=O)O)cn(C3CC3)c12 (stereo not given) [GATIFLOXACIN]
Not Active: IC50 [1] | IC50 [2] | IC50 [3] | IC50 [4] | IC50 [5] | IC50 [6] | IC50 [7] | IC50 [8] | IC50 [9] | IC50 [10] | IC50 [11] | IC50 [12] | Ki [12] | IC50 [13] | Ki [13]

CC[N+](CC)(CC)CCOc1cccc(OCC[N+](CC)(CC)CC)c1OCC[N+](CC)(CC)CC.[I-].[I-].[I-] [GALLAMINE TRIETHIODIDE]
Not Active: IC50 [1] | IC50 [2] | IC50 [3] | IC50 [4] | IC50 [5] | IC50 [6] | IC50 [7] | IC50 [8] | IC50 [9] | IC50 [10] | IC50 [11] | IC50 [12] | Ki [12] | IC50 [13] | Ki [13]

Nc1nc(=O)[nH]cc1F [FLUCYTOSINE]
Not Active: IC50 [1] | IC50 [2] | IC50 [3] | IC50 [4] | IC50 [5] | IC50 [6] | IC50 [7] | IC50 [8] | IC50 [9] | IC50 [10] | IC50 [11] | IC50 [12] | Ki [12] | IC50 [13] | Ki [13]

O=c1[nH]cc(F)c(=O)[nH]1 [FLUOROURACIL]
Not Active: IC50 [1] | IC50 [2] | IC50 [3] | IC50 [4] | IC50 [5] | IC50 [6] | IC50 [7] | IC50 [8] | IC50 [9] | IC50 [10] | IC50 [11] | IC50 [12] | Ki [12] | IC50 [13] | Ki [13]

OCc1ccccc1 [BENZYL ALCOHOL]
Not Active: IC50 [1] | IC50 [2] | IC50 [3] | IC50 [4] | IC50 [5] | IC50 [6] | IC50 [7] | IC50 [8] | IC50 [9] | IC50 [10] | IC50 [11] | IC50 [12] | Ki [12] | IC50 [13] | Ki [13]

CC1(C)[C@@H](O[C@H]2O[C@H](C(=O)O)[C@@H](O)[C@H](O)[C@H]2O[C@@H]2O[C@H](C(=O)O)[C@@H](O)[C@H](O)[C@H]2O)CC[C@]2(C)[C@H]3C(=O)C=C4[C@@H]5C[C@@](C)(C(=O)O)CC[C@]5(C)CC[C@@]4(C)[C@]3(C)CC[C@@H]12 [GLYCYRRHIZIN]
Not Active: IC50 [1] | IC50 [2] | IC50 [3] | IC50 [4] | IC50 [5] | IC50 [6] | IC50 [7] | IC50 [8] | IC50 [9] | IC50 [10] | IC50 [11] | IC50 [12] | Ki [12] | IC50 [13] | Ki [13]

CCCCCCCCCc1ccc(O)cc1 [4-NONYLPHENOL]
Not Active: IC50 [1] | IC50 [2] | IC50 [3] | IC50 [4] | IC50 [5] | IC50 [6] | IC50 [7] | IC50 [8] | IC50 [9] | IC50 [10] | IC50 [11] | IC50 [12] | Ki [12] | IC50 [13] | Ki [13]
